Experimental data as given in patent US5965568A, “Composition for inhibiting production or secretion of amyloid β protein to treat Down's syndrome” (priority 1995, dated 1999).

Legend:
[1] = has been used as a medicament; cited from earlier work
[2] = test system: guinea pig primary culture neurons
Protocol: Fetal brains were taken out from guinea pigs (SLC-Hartley) that was 28 days pregnant. The cerebral cortex and hippocampus were taken out under a stereoscopic microscope, and, after removing the meninges, were treated in Hank's Balanced Salt Solution (20 ml) containing 0.25% trypsin/0.01% DNase I for 10 minutes. FCS was added to stop the reaction, and the mixture was centrifuged. The cells were dispersed in DMEM culture solution (DMEM/N2 culture solution) containing insulin 5 μg/ml, transferrin 100 μg/ml, progesterone 20 nM, putrescine 100 μM and sodium selenite 30 nM. The dispersion was filtered through double lens paper, and the filtrate was centrifuged to collect the cells. The cells were dispersed in DMEM/N2 culture solution, and inoculated in a 24-well plate at a density of 1×10^-6 cells/well. On the second day from the beginning of the cultivation, the culture solution was replaced with DMEM/N2 culture solution containing cytosine arabinoside (1 μM). After the treatment for 3 days, the culture solution was replaced with DMEM/N2 culture solution. Thereafter, the culture solution was replaced every 2 to 3 days. […] After the culture supernatant was collected, DMEM culture solution (300 μl) containing 1.2 mM MTT was added. After the reaction was carried out at 37° C. for 1 hour, an equal amount of 10% sodium dodecyl sulfate solution was added.

[3] = test system: Aβ (1-40) production and secretion in guinea pig primary culture neurons; experiment: Inhibitory activity against Aβ (1-40) production and secretion in guinea pig primary culture neurons (EIA); assay type: cell-based; details: 3×10^-5 M, 24 hours
Excerpt: Aβ (1-40) and Aβ (1-42) in the culture supernatant were quantified in the same manner as that described in Experiment 1.

[4] = test system: Aβ (1-42) production and secretion in IMR-32 cells; experiment: Inhibitory activity against Aβ (1-42) production or secretion in human neuroblastoma IMR-32 cells (EIA, BAN-50/BC-05); assay type: cell-based; details: not a significant change
Excerpt: (§1) Studies on Aβ production or secretion in human-derived neurons and gliocytes are very interesting because of the relation to Alzheimer's dementia. However, human primary culture neurons and gliocytes cannot generally be used for experimental materials. IMR-32 cells were therefore used. The IMR-32 cells are human-derived neuroblastoma cells, and produce and secrete Aβ in the culture supernatant (Shinkei Kagaku (Neurochemistry) 33, 232 (1994)). In addition, Dr. Hironobu Suzuki et al. (Science, 264, 1336 (1994)) had developed an enzyme immunoassay method that can determine and distinguish between Aβ of 40 amino acids (Aβ (1-40)) and Aβ of 42 amino acids (Aβ (1-42)). This method was used to determine inhibitory activity of the test compound against Aβ production or secretion.
Human neuroblastoma IMR-32 cells were purchased from American Type Culture Collection (ATCC). Dulbecco's modified Eagle's medium (DMEM) was purchased from Nissui Pharmaceutical Co., Ltd., Japan. Fetal calf serum (hereinaftersometimes abbreviated as FCS) and a mixed solution of penicillin (5000 U/ml) and streptomycin (5 mg/ml) were purchased from Biowhittaker Inc. Phosphate buffered saline (PBS) was purchased from Flow Laboratories. Block Ace was purchased from Dainippon Pharmaceutical Co., Ltd. Bovine serum albumin (BSA) was purchased from Sigma. […]

[5] = test system: Aβ production or secretion in IMR-32 cells; experiment: Inhibitory activity against Aβ production or secretion in human neuroblastoma IMR-32 cells (EIA); assay type: cell-based; details: 24 hours, vs control group, mean of 4 wells, read-out: inhibition of Aβ production or secretion, based on the control group
Excerpt: as §1
Human neuroblastoma IMR-32 cells were purchased from American Type Culture Collection (ATCC). Dulbecco's modified Eagle's medium (DMEM) was purchased from Nissui Pharmaceutical Co., Ltd., Japan. Fetal calf serum (hereinaftersometimes abbreviated as FCS) and a mixed solution of penicillin (5000 U/ml) and streptomycin (5 mg/ml) were purchased from Biowhittaker Inc. Phosphate buffered saline (PBS) was purchased from Flow Laboratories. Block Ace was purchased from Dainippon Pharmaceutical Co., Ltd. Bovine serum albumin (BSA) was purchased from Sigma. Flasks for culture and 48-well multi well plates were those manufactured by Falcon and Coster Corporation, respectively. Standard samples of Aβ (1-40) and Aβ (1-42) were purchased from Bachem. The other reagents used were commercially available highest quality goods.
IMR-32 cells were cultured at 37° C. in 10% carbon dioxide/90% air using 10% FCS/DMEM culture solution in a flask (Falcon, 750 ml) until the confluent growth of the cells was obtained. Then, the cells were inoculated in a 48-well multi well plate at a density of 2.5×10^5 cells/well, and cultured for 5 days. The culture solution was sucked off, and then DMEM/0.5% BSA (0.5 ml for the assay of Aβ (1-40) or 0.25 ml for the assay of Aβ (1-42)) was added. The cells were cultured for 24 hours.
In each case, the primary antibody was BAN-50 antibody that recognizes the N-terminal region of Aβ (1-40). BA-27 is an antibody prepared using Aβ (1-40) as an antigen, and recognizes the C-terminal region of Aβ (1-40). On the other hand, BC-05 antibody is an antibody prepared using Aβ (35-43) as an antigen, and recognizes the C-terminal region of Aβ (1-42) but not Aβ (1-40). Therefore, Aβ (1-40) can be assayed with a combination of BAN-50 antibody with BA-27 antibody, and Aβ (1-42) can be assayed with a combination of BAN-50 antibody with BC-05 antibody. […]

IMR-32 cells [6] = experiment: Evaluation of the cytotoxicity, MTT method, IMR-32 cells; assay type: cell-based, human; details: 1×10^-4 (maximum concentration used)
Protocol: The culture supernatant was sampled, and DMEM culture solution (500 μl) containing 1.2 mM MTT {3-(4,5dimethyl-2-thiazolyl)-2,5-diphenyl-2H-tetrazolium bromide} was added. The reaction was carried out for 1 hour at 37° C., and then an equal amount of 10% sodium dodecyl sulfate solution was added. The mixture was gently stirred overnight to dissolve the resulting formazan, and then subjected to colorimetry (wavelength: 550 nm) with a plate reader.
Four wells were used per dose of the drug. The value in the data was represented as a ratio (%) to the control group. Dunnett's t test was used for the statistical analysis.

IMR-32 cells [7] = experiment: Evaluation of the cytotoxicity, lactate dehydrogenase (LDH) method, IMR-32 cells; assay type: cell-based, human; details: 1×10^-4 (maximum concentration used)
Protocol: IMR-32 cells were cultured at 37° C. in 10% carbon dioxide/90% air using 10% FCS/DMEM culture solution in a flask (Falcon, 750 ml) until the confluent growth of the cells was obtained. Then, the cells were inoculated in a 48-well multi well plate at a density of 2.5×10^5 cells/well, and cultured for 5 days. […] The cells were cultured for 24 hours. […] The culture supernatant (10 μl) obtained after the assay of Aβ (1-40) was sampled, and the amount of LDH released from the cells was determined with a LDH assay kit (LDH C-II manufactured by Wako Pure Chemical Industries, Ltd.). Four wells were used per dose of the drug. The value in the data was represented as a ratio (%) to the control group. Dunnett's t test was used for the statistical analysis.

secreted βAPP = details: in vitro various cells; cited from earlier work
[8] = test system: Aβ production or secretion; details: in vitro various cells; cited from earlier work

Compound	toxic problems in use as a medicament [1]	cytotoxicity (MTT) [2]	production or secretion of Aβ (1-40) [3]	Aβ (1-42) production and secretion compared to the control group ([4]; 1×10^-5 M)	Aβ (1-42) production and secretion compared to the control group ([4]; 3×10^-6 M)	inhibition at 100 µM ([5]; 1×10^-4 M) [%]	inhibition at 10 µM ([5]; 1×10^-5 M) [%]	inhibition at 30 µM ([5]; 3×10^-5 M) [%]	inhibition at 3 µM ([5]; 3×10^-6 M) [%]	cytotoxicity (formazan formed from MTT) (IMR-32 cells [6])	cytotoxicity (LDH activity in the culture supernatant) (IMR-32 cells [7])	secreted βAPP (secreted βAPP)	Aβ production or secretion [8]
CCOC(=O)C1=C[C@]2(CC)CCCN3CCc4c(n1c1ccccc41)[C@@H]32 [Vinpocetine, vinpocetine]	no toxic problems	without any cytotoxicity	inhibited production or secretion of Aβ (1-40)	showed a tendency to decrease	showed a tendency to decrease	45	30	40	10	only slight cytotoxicity	only slight cytotoxicity		
C[N+](C)(C)CCOC(N)=O [carbacol]												increase the secreted βAPP	inhibit Aβ production or secretion
